ChEMBL document CHEMBL4266060, “Structure-Property Relationship Studies of Influenza A Virus AM2-S31N Proton Channel Blockers” (ACS Med Chem Lett, 2018)

Columns and labels:
Influenza A virus [1] = assay: microbe, parasite or virus in culture; conditions: MDCK
Influenza A virus [2] = assay: microbe, parasite or virus in culture; conditions: MDCK; remark: listed apart in the source
Influenza A virus [3] = assay: microbe, parasite or virus in culture; conditions: MDCK; remark: listed apart in the source
Influenza A virus [4] = assay: microbe, parasite or virus in culture; conditions: MDCK; remark: listed apart in the source
Influenza A virus [5] = assay: microbe, parasite or virus in culture; conditions: A/North Carolina/29/2009(H1N1), MDCK
Influenza A virus [6] = conditions: mdck

SMILES	EC50 (Influenza A virus [1]) [nM]	EC50 (Influenza A virus [2]) [nM]	EC50 (Influenza A virus [3]) [nM]	EC50 (Influenza A virus [4]) [nM]	EC50 (Influenza A virus [5]) [nM]	EC50 (Influenza A virus [6]) [nM]
OC12CC3CC(C1)CC(NCc1ccc(Br)s1)(C3)C2	1400	600	2000	700	2800	–
OC12CC3CC(C1)CC(NCc1ccc(I)s1)(C3)C2	800	600	700	400	–	1100
CCC(CC)O[C@@H]1C=C(C(=O)O)C[C@H](N)[C@H]1NC(C)=O [OSELTAMIVIR CARBOXYLATE]	2.5	> 200	> 200	> 200	> 200	–
